Where “and” joins values, the source holds several entries; their conditions need not be identical. Equal entries are not always repeated. Entries after “also recorded” stand apart in the source; their conditions may differ.
How the values were obtained:
[1] = Plasma AICA riboside concentrations / pharmacokinetics in CABG patients (Phase 2); assay type: in vivo, human
Description: 10. Plasma Levels. […] Individual values and group means were tabulated and drug clearance calculated. Dose proportionality was assessed.
The data are also presented graphically in FIG. 3.

[2] = test system: patients undergoing coronary artery bypass graft (CABG) surgery; assay: Myocardial ischemia by continuous Holter ECG and TEE (Phase 2); assay type: in vivo, human; details: for Mean duration of postbypass ECG ischemic episodes: patients with events, placebo 175 ± 156, p=0.04; for Incidence of prebypass ECG ischemia: placebo 0%; for Incidence of ECG ischemia (postbypass) / Incidence of preoperative (baseline) ECG ischemia: placebo 18%; for Incidence of ECG ischemia (postbypass): p=0.42; for Incidence of prebypass TEE ischemia: placebo 19%; for Incidence of prebypass TEE ischemia / Ischemic minutes per hour monitored, postbypass: p=0.22; for Incidence of postbypass TEE ischemia: placebo 29%, p=0.86; for Ischemic minutes per hour monitored, postbypass: placebo 35 ± 14; for Mean area under the S-T curve (AUC), postbypass ECG ischemia: placebo -258 ± 317, p=0.24; for Incidence of preoperative (baseline) ECG ischemia: before drug; for Mean area under the S-T segment: post-bypass, placebo 35±14
Description: During surgery, anesthesia was maintained by continuous infusion of fentanyl and midazolam. Routine clinical parameters were recorded using standard operating room monitoring equipment. Continuous 2-lead Holter ECG and TEE data were recorded. Standard surgical procedures (e.g., aorta cross-clamping, crystalloid cardioplegia, cardio-pulmonary bypass, hypothermia) were used. Anastomoses were constructed, aorta cross-clamp removed and patients were discontinued from bypass when body temperature was 37° C. The quality of anastomosis was judged by the surgeon. Difficulty in weaning from bypass was judged by need for one or more of the following: pacemaker, return to bypass, balloon pump or vasopressor administration. Hemodynamic measurements, including heart rate, arterial blood pressure, pulmonary capillary wedge pressure and cardiac output, were recorded before sternotomy, 15 and 30 min after bypass and upon chest closure. Radial artery and pulmonary artery pressures, myocardial and whole body temperature, O2 saturation, end-tidal CO2 and arterial blood gases were measured, and ECG recordings were obtained as clinically indicated. Hemodynamic variables (blood pressure, heart rate, pulmonary capillary wedge pressure) were controlled within 20% of baseline using prescribed regimens.
A twelve-lead ECG was obtained on arrival in the intensive care unit and during post-operative days 1, 2, 3 and at hospital discharge. Creatinine phosphokinase MB band (CK-MB) was obtained every 8 hours for 48 hours and when indicated. Radio-nuclide ventriculography for ejection fraction and wall motion score was done about 14 days post-operation and as close to hospital discharge as possible. Other tests and measurements (e.g., chest x-ray, pulmonary artery wedge pressure (PCWP) were performed when clinically indicated for diagnosis or evaluation of myocardial infarction, or congestive heart failure. Timing and dose of all cardiovascular medications within 48 hours after surgery were recorded. The total dose of all analgesics during the 24-hour post-operative period was recorded. Fluid intake and output (e.g., blood replacement and urine output) were recorded for 48 hours. The type and duration of inotropic support and antiarrhythmic intervention required were recorded through 24 hours after surgery. Two-channel Holter recordings were obtained during 3 periods, the eight hours prior to intubation, from intubation through the end of surgery, and for an additional 24-48 hours after surgery.
The evaluation of Holter tapes and echo videotapes was performed centrally by two independent blinded observers; if there was disagreement between the two, a third observer was used to "break the tie." The same observers were used throughout the study.
5. Ischemic Events--TEE. Ischemic event data were evaluated during two time periods--pre-bypass and post-bypass, using the following analysis:
a) The number of patients with ischemic events was compared across the groups using Fisher's exact test. This analysis also included pre-post changes and pre- and post-combined.
b) For patients with events, analysis of the mean duration and severity of ischemia was done. Using only the patients with ischemic events reduced the number included in the analysis, but allowed determination of whether the drug is effective in reducing the magnitude of the events, should they occur. […] For severity (an […] variable, 0-4 scale) and number of events, the Kruskal-Wallis nonparametric test was used. The same comparisons were done with the active treatment groups combined.
6. Ischemic Events--ECG. The analysis of ischemic events indicated by ECG was done using the same methods as the echo events. The time periods analyzed were: (a) baseline (Holter start to infusion start), (b) pre-bypass (infusion start to bypass start), (c) post-bypass (sideclamp off to infusion end), and (d) post-treatment (infusion end to Holter end). […]

[3] = Discoloration of liquid formulation during storage; assay type: physicochemical
[4] = test system: patients undergoing coronary artery bypass graft (CABG) surgery; assay: Incidence of MI and combined clinical outcome by plasma level of AICA riboside, Phase 3; assay type: in vivo, human
Source text: The data in Table 13 reflect diagnosis of MI by both ECG and CK-MB (as described above with respect to Table 12).

[5] = Uric acid monitoring, Phase 3 CABG trial; assay type: in vivo, human; details: treated patients, data not shown
Source text: The uric acid concentrations of all patients in the study were monitored.

[6] = Safety assessment / adverse events in CABG patients (Phase 2); assay type: in vivo, human; details: for Patients with one or more adverse events: placebo 29 of 37
Description: In addition to the hemodynamic monitoring described above the following tests were performed at screening, on the first post-operative day and at discharge:
4. Any adverse events were recorded throughout by the investigator, who assessed their severity and the relationship of these adverse experiences to the treatment.
11. Adverse Effects. The incidence, severity and drug-relatedness of any adverse effects were tabulated by treatment group by decreasing incidence of such effects in the high dose group. Statistical analysis was not performed.

[7] = high dose (0.1 mg/kg/min), 0.1 mg/kg
[8] = low dose (0.05 mg/kg/min), 0.05 mg/kg
[9] = AICA riboside plasma level <0.25 μg/ml, n=209
[10] = AICA riboside plasma level <0.25 μg/ml, n=211
[11] = plasma level 0.25-2.00 μg/ml, n=83
[12] = plasma level 0.25-2.00 μg/ml, n=89
[13] = plasma level 2.00-3.00 μg/ml, n=114
[14] = plasma level 2.00-3.00 μg/ml, n=116
[15] = plasma level 3.00-4.00 μg/ml, n=44
[16] = plasma level 4.00-5.00 μg/ml, n=61
[17] = plasma level 5.00-6.00 μg/ml, n=49
[18] = plasma level 5.00-6.00 μg/ml, n=50

NC(=O)c1ncn([C@@H]2O[C@H](CO)[C@@H](O)[C@H]2O)c1N [AICA riboside, 5-amino-1-β-D-ribofuranosyl-imidazole-4-carboxamide]
Steady state plasma concentration ([1]; 0.05 mg/kg/min): approximately 2.5 μg/ml
Mean (±SEM) plasma AICA riboside concentration ([1]; 0.05 mg/kg/min constant infusion, n=40, pre-bypass): 2.66 ± 0.30 µg/mL
Mean (±SEM) plasma AICA riboside concentration ([1]; 0.05 mg/kg/min, n=40, 1 hour post-infusion): 0.32 ± 0.63 µg/mL
Mean (±SEM) plasma AICA riboside concentration ([1]; 0.05 mg/kg/min, n=40, end infusion): 1.83 ± 0.13 µg/mL
Mean (±SEM) plasma AICA riboside concentration ([1]; 0.05 mg/kg/min, n=40, post-bypass): 2.49 ± 0.13 µg/mL
Steady state plasma concentration ([1]; 0.1 mg/kg/min): ~5.0 µg/mL
Mean (±SEM) plasma AICA riboside concentration ([1]; 0.10 mg/kg/min constant infusion, n=31, pre-bypass): 5.11 ± 0.20 µg/mL
Mean (±SEM) plasma AICA riboside concentration ([1]; 0.10 mg/kg/min, n=31, 1 hour post-infusion): 0.45 ± 0.03 µg/mL
Mean (±SEM) plasma AICA riboside concentration ([1]; 0.10 mg/kg/min, n=31, end infusion): 3.67 ± 0.30 µg/mL
Mean (±SEM) plasma AICA riboside concentration ([1]; 0.10 mg/kg/min, n=31, post-bypass): 5.47 ± 0.19 µg/mL
Kinetics (linearity, dose proportionality) ([1]; CABG patients, 0.05 and 0.1 mg/kg/min infusion): exhibits linear kinetics; also recorded: good dose proportionality
Plasma concentration as % of steady state level after end of infusion ([1]; one hour after infusion terminated): 10%
Change of CLp during post-bypass period ([1]; post-bypass): trend for the CLp to increase
Dose needed in anesthetized patients, % less than in non-anesthetized patients ([1]; to achieve desired blood concentration levels): 20-50%
Mean duration of postbypass ECG ischemic episodes [2, 7]: 36 ± 20 min and 36 min
Incidence of prebypass ECG ischemia ([2]; high dose (0.1 mg/kg/min)): 3%
Incidence of ECG ischemia (postbypass) ([2]; high dose (0.1 mg/kg/min)): 11%
Incidence of prebypass TEE ischemia ([2]; high dose (0.1 mg/kg/min)): 6%
Incidence of postbypass TEE ischemia ([2]; high dose (0.1 mg/kg/min)): 24%
Ischemic minutes per hour monitored, postbypass [2, 7]: 27 ± 20 min/h
Mean area under the S-T curve (AUC), postbypass ECG ischemia ([2]; high dose (0.1 mg/kg/min)): -52 ± 28 mm-min
Incidence of preoperative (baseline) ECG ischemia ([2]; high dose group (0.1 mg/kg/min)): 14%
Mean area under the S-T segment ([2]; high dose): 27±20
Mean duration of postbypass ECG ischemic episodes [2, 8]: 125 ± 80 min and 125 min
Incidence of prebypass ECG ischemia ([2]; low dose (0.05 mg/kg/min)): 3%
Incidence of ECG ischemia (postbypass) ([2]; low dose (0.05 mg/kg/min)): 22%
Incidence of prebypass TEE ischemia ([2]; low dose (0.05 mg/kg/min)): 15%
Incidence of postbypass TEE ischemia ([2]; low dose (0.05 mg/kg/min)): 27%
Ischemic minutes per hour monitored, postbypass [2, 8]: 40 ± 15 min/h
Mean area under the S-T curve (AUC), postbypass ECG ischemia ([2]; low dose (0.05 mg/kg/min)): -172 ± 144 mm-min
Incidence of preoperative (baseline) ECG ischemia ([2]; low dose group (0.05 mg/kg/min)): 14%
Mean area under the S-T segment ([2]; low dose): 40±15
Effect on postsurgical myocardial ischemia ([2]; patients undergoing CABG surgery): limits the extent of postsurgical myocardial ischemia
Stability of liquid formulation [3]: variable discoloration
Incidence of myocardial infarction [4, 9]: 4.3%
Myocardial infarction, number of patients [4, 9]: 9 patients
Combined clinical outcome, number of patients [4, 10]: 29 patients
Incidence of combined clinical outcome [4, 10]: 13.7%
Most effective plasma level of AICA riboside ([4]; from Table 13): 3 to 6 µg/mL
Incidence of myocardial infarction [4, 11]: 2.4%
Myocardial infarction, number of patients [4, 11]: 2 patients
Combined clinical outcome, number of patients [4, 12]: 9 patients
Incidence of combined clinical outcome [4, 12]: 10.1%
Incidence of myocardial infarction [4, 13]: 4.4%
Myocardial infarction, number of patients [4, 13]: 5 patients
Combined clinical outcome, number of patients [4, 14]: 11 patients
Incidence of combined clinical outcome [4, 14]: 9.5%
Combined clinical outcome, number of patients [4, 15]: 3 patients
Incidence of combined clinical outcome [4, 15]: 6.8%
Incidence of myocardial infarction [4, 15]: 2.3%
Myocardial infarction, number of patients [4, 15]: 1 patients
Combined clinical outcome, number of patients [4, 16]: 2 patients
Incidence of combined clinical outcome [4, 16]: 3.3%
Myocardial infarction, number of patients [4, 16]: 0 patients
Incidence of myocardial infarction [4, 17]: 4.1%
Myocardial infarction, number of patients [4, 17]: 2 patients
Combined clinical outcome, number of patients [4, 18]: 3 patients
Incidence of combined clinical outcome [4, 18]: 6.0%
Incidence of myocardial infarction ([4]; plasma level >6.00 μg/ml, n=44): 2.3%
Myocardial infarction, number of patients ([4]; plasma level >6.00 μg/ml, n=44): 1 patients
Combined clinical outcome, number of patients ([4]; plasma level >6.00 μg/ml, n=46): 4 patients
Incidence of combined clinical outcome ([4]; plasma level >6.00 μg/ml, n=46): 8.7%
Crystalluria [5]: no clinically significant crystalluria
Plasma uric acid concentrations vs normal range [5]: generally remained in, or close to, the normal range
Uric acid concentrations, dose relation [5]: clear dose related increase in uric acid concentrations
Patients with one or more adverse events ([6]; 0.05 mg/kg/min): 28/41
Patients with one or more adverse events ([6]; 0.1 mg/kg/min): 30/35
Adverse events in individual patient ([6]; 0.38 mg/kg/min, patient A5): no events other than S-T segment elevation on the ECG post-bypass
Frequency of adverse events vs placebo ([6]; drug-treated patients, 0.05 and 0.1 mg/kg/min): no evidence that any of these events occurred more frequently in drug-treated patients compared with placebo
Tolerability ([6]; first patients, 0.19 or 0.38 mg/kg/min): well tolerated
Serious adverse experiences ([6]; first six patients, 0.19 or 0.38 mg/kg/min): no serious adverse experiences
Serum/urinary uric acid and crystalluria ([6]; five drug-treated patients, 0.19 or 0.38 mg/kg/min): significant hyperuricemia and elevated urinary uric acid levels with crystalluria
Urine coloration ([6]; five patients at 0.19 or 0.38 mg/kg/min, patient A14 at 0.05 mg/kg/min): same green coloration; also recorded: clear, green coloration

Reference: patent publication US5817640A (Gensia Pharmaceuticals, priority 1995, dated 1998)
